Several values for one entry are separate records, joined by “and”; a condition that tells them apart may be missing. Equal entries are not always repeated.

The nature of the series: Oral administration of rhGH with delivery agent or conjugate in rats, serum rhGH by immunoassay. The format is in vivo, Sprague-Dawley rats. The conditions noted are these: individual rat, 200 mg/kg conjugate = 20 mg/kg delivery agent. The procedure:
Oral gavage (PO) and/or intracolonic (IC) dosing solutions of delivery agent compound and rhGH in water, phosphate buffer (PB) or 5% aqueous ethanol were prepared. Typically, a solution of the conjugate was prepared by mixing in water and stirred. The final dosing solutions were prepared by mixing the conjugate solution with an rhGH stock solution (typically 15 mg rhGH/ml) and diluting to the desired volume (usually 3.0 ml). The compounds and rhGH dose amounts are listed below in Table 1.
Male Sprague-Dawley rats weighing between 200-250 g were fasted for 24 hours and administered ketamine (44 mg/kg) and chlorpromazine (1.5 mg/kg) 15 minutes prior to dosing. A dosing group of five rats was administered one of the dosing solutions. For oral gavage (PO), an […] Rusch 8 French catheter was adapted to a 1 ml syringe with a pipette tip. The syringe was filled with dosing solution by drawing the solution through the catheter, which was then wiped dry. The catheter was placed down the esophagus leaving 1 cm of tubing past the rat's incisors. Solution was administered by pressing the syringe plunger. For intracolonic (IC) dosing, a 7.5 cm Rusch catheter tube (French 8 or 6) was adapted to a syringe with an Eppendorf pipette tip. The syringe was filled with the 0.5 ml dosing solution by drawing the solution through the catheter tube. The catheter tube was wiped dry. K-Y jelly was applied to the tip, avoiding contact with the eye of the tube, and the tube was inserted into the colon through the anus until the tube was no longer visible. The solution was injected by pressing the syringe plunger, and the tube was removed.
Blood samples were collected serially from the tail artery, typically at time=0, 15, 30, 45, 60 and 90 minutes for oral and 0, 10, 20, 30, 60 and 90 for IC dosing. Serum rHGH concentrations were quantified by an rHGH immunoassay test kit (Kit # K1F4015 from Genzyme Corporation Inc., Cambridge, Mass.). Previous studies indicated baseline values of about zero.
The experiments were performed at 1/10 the delivery agent concentration versus that of the conjugate. Thus, at a dose of 200 mg/kg conjugate, the actual amount of delivery agent dosed was 20 mg/kg.

In the case of `O=C(O)CCCCCCCNC(=O)c1ccccc1O` [delivery agent I], the “Serum rhGH concentration, Min15” value (15 min, listed as (a)) was 45.34 and 0 and 64.2 and 43.14 and 84.73 and 79.98 and 48.72. Besides, the “Serum rhGH concentration, Min30” value (30 min, listed as (a)) is 46.52 and 58.44 and 18.99 and 23.44 and 13.19 and 22.69 and 1.82. In addition, the “Serum rhGH concentration, Min45” value (45 min, listed as (a)) was 35.53 and 0 (4×) and 4.29 and 18.35. Further, the “Serum rhGH concentration, Min60” value (60 min, listed as (a)) was 34.885 and 3.922 and 10.13 and 15.93 and 10.565 and 5.49 and 7.905. Also, the “Serum rhGH concentration, Min90” value (90 min, listed as (a)) is 2.715 and 0 (5×) and 1.47. In addition, the “Serum rhGH concentration, Base line” value (baseline (time 0)) came to 0.

The record behind these values is patent US7727558B2, “Polymeric delivery agents and delivery agent compounds” (Emisphere Technologies, Inc., priority 1999, dated 2010).
